Measurements: patent publication US9381142B2, “Olfactory adaptation and cross-adapting agents to reduce the perception of body odors” (Monell Chemical Senses Center, priority 2002, dated 2016)

Key:
[1] = test system: female stress-derived axillary odor; assay: Cross-adaptation of female stress-derived axillary odor (odor panel, magnitude estimation of perceived intensity); assay type: in vivo, human; settings: for Magnitude of Reduction of Intensity of Female Stress-Derived Odor (FSDO), Males: female stress-derived odor perceived by men; for Magnitude of Reduction of Intensity of Female Stress-Derived Odor (FSDO), Females: female stress-derived odor perceived by women
Excerpt: (§1) The procedure relies upon an individual constantly sniffing an adapting agent, such as a fragrance, and occasionally a test odorant. Perceived intensity of the test odorant is obtained by using psychophysical, magnitude-estimation procedures. These perceived intensities are obtained every 30 seconds over the test period, and are then compared with baseline perceived intensities obtained before the individual began sniffing the adapting agent. Throughout the testing we observe adaptation to the adapting agent. Results during trials with an inserted test odorant, such as the axillary odor used here, are believed to be reasonably predictive. If the perceived intensity of the test odorant decreases during the test, then the adapting agent cross-adapts the test odorant and becomes a cross-adapting agent. If the cross-adapting agent is itself not offensive, then the cross-adapting agent becomes a candidate for use in formulations in consumer products to ameliorate malodors, such as axillary odor or fecal/urine odors, and odors related to the female menstrual cycle.
(§2) Collection of secretions: Apocrine secretions obtained under stressed conditions provided the axillary odor that was used as the test odorant to evaluate the effectiveness of various adapting agents. Secretions were obtained from males (ages 20 to 60 years) and females (ages 20 to 40 years) in good health. […] Volunteers prepared their axillae for collection of apocrine secretions by refraining from deodorant use for 3 days and shaving their axillae the morning of the collection day.
(§3) Volunteers were rested in a supine position. The axillary regions were washed with isopropanol-soaked pads and injected intradermally with 1:10,000 adrenalin (in physiologic saline). This injection stimulated the secretion of apocrine gland secretions, which were collected in 10 μl pipettes, passed into 0.25 ml Eppendorf tubes, and stored on ice (or frozen for longer storage). The amount of secretion collected varied greatly with the individual subject (≦10 μl). The apocrine secretions from each volunteer were combined by consecutively washing each Eppendorf tube with 2×300 μl of doubly distilled water. This aqueous-apocrine fluid was transferred to a 5 ml round-bottomed flask for hydrolysis. X-N. Zeng, J. J. Leyden, J. G. Brand, A. I. Spielman, K. J. McGinley, G. Preti, An Investigation of Human Apocrine Gland Secretion for Axillary Odor Precursors, 18 J. Chem. Ecol. 1039-1055 (1992); X-N. Zeng, J. J. Leyden, A. I. Spielman and G. Preti Analysis of the characteristic human female axillary odors: Qualitative comparison to males. 22 J. Chem. Ecol. 237-257 (1996).
(§4) Production of odor: To produce quantities of stress-derived axillary odor for testing purposes, we hydrolyzed the apocrine secretion. The aqueous solution was refluxed for 20 min with 0.5 ml, 5% aqueous sodium hydroxide under a stream of nitrogen. The mixture was allowed to cool to room temperature, and then it was cooled in ice prior to being acidified with 6 N HCl to pH 2. The resulting axillary odor developed in the reaction mixture upon acidification was used as the test odorant. The axillary odors generated by this in vitro technique are analogous to the malodors produced by stressed individuals.
A separate panel of 24 subjects (12 males and 12 females) tested samples of female stress-derived axillary odor with potential cross-adapting agents, some of which were not included in Example 1 above. Some of the subjects assessing the effectiveness of cross-adaptation of male stress-derived axillary odor were also used in the experiment with female secretions. However, these two experiments were treated as independent events. All panel members were screened for adequate use of magnitude estimation and further trained in its use during two to three training sessions. […]

[2] = test system: male stress-derived axillary odor; assay: Cross-adaptation of male stress-derived axillary odor (odor panel, magnitude estimation of perceived intensity); assay type: in vivo, human; settings: for Magnitude of Reduction of Intensity of Male Stress-Derived Odor (MSDO), Males: male stress-derived odor perceived by men; for Magnitude of Reduction of Intensity of Male Stress-Derived Odor (MSDO), Females: male stress-derived odor perceived by women
Excerpt: as §1, §2, §3, §4
Sixteen (16) individuals (8 of each gender) served on an odor panel. Subjects ranged in age from 22 to 55 years (mean 32.7±10.6 s.d.), were not pregnant (by verbal report), and were all non-smokers. All panel members were screened for adequate use of magnitude estimation (some people have difficulties maintaining a ratio scale, i.e., when an odorant is half as strong as the previous, these people fail to provide a number that is half the previous estimate) and further trained in its use during 2-3 training sessions. All 16 subjects were tested with samples of male malodor compared to each of the potential cross-adapting agents. […]
Also: key: best: Best = Superior Cross-Adaptation; good: Good = Adequate Cross-Adaptation; poor: Poor = Ineffective Cross-Adaptation.

SMILES: O=C1CCCCCCCC=CCCCCCCO1 [Ambrettolide, oxacycloheptadec-10-en-2-one]
- Magnitude of Reduction of Intensity of Female Stress-Derived Odor (FSDO), Males [1]: poor
- Magnitude of Reduction of Intensity of Female Stress-Derived Odor (FSDO), Females [1]: good
- Magnitude of Reduction of Intensity of Male Stress-Derived Odor (MSDO), Males [2]: poor
- Magnitude of Reduction of Intensity of Male Stress-Derived Odor (MSDO), Females [2]: poor

SMILES: CCCCCCCC1CCC(=O)O1 (stereo not shown) [C14 Aldehyde, gamma-undecalactone]
- Magnitude of Reduction of Intensity of Female Stress-Derived Odor (FSDO), Males [1]: good
- Magnitude of Reduction of Intensity of Female Stress-Derived Odor (FSDO), Females [1]: good
- Magnitude of Reduction of Intensity of Male Stress-Derived Odor (MSDO), Males [2]: good
- Magnitude of Reduction of Intensity of Male Stress-Derived Odor (MSDO), Females [2]: poor

SMILES: CO[C@]1(C)CC[C@@]23C[C@@H]1C(C)(C)[C@@H]2CC[C@H]3C [CEDRAMBER ®, cedryl methyl ether]
- Magnitude of Reduction of Intensity of Female Stress-Derived Odor (FSDO), Males [1]: good
- Magnitude of Reduction of Intensity of Female Stress-Derived Odor (FSDO), Females [1]: good
- Magnitude of Reduction of Intensity of Male Stress-Derived Odor (MSDO), Males [2]: good
- Magnitude of Reduction of Intensity of Male Stress-Derived Odor (MSDO), Females [2]: poor

SMILES: CC(C)=CCC(C)(C)C(=O)C(C)C [CLARITONE ®, 2,4,4,7-tetramethyl-oct-6-en-3-one]
- Magnitude of Reduction of Intensity of Female Stress-Derived Odor (FSDO), Males [1]: best
- Magnitude of Reduction of Intensity of Female Stress-Derived Odor (FSDO), Females [1]: good
- Magnitude of Reduction of Intensity of Male Stress-Derived Odor (MSDO), Males [2]: best
- Magnitude of Reduction of Intensity of Male Stress-Derived Odor (MSDO), Females [2]: best

SMILES: CC/C=C\CCO [Cis-3-Hexenol, cis-3-hexenol-1-ol]
- Magnitude of Reduction of Intensity of Female Stress-Derived Odor (FSDO), Males [1]: best
- Magnitude of Reduction of Intensity of Female Stress-Derived Odor (FSDO), Females [1]: good
- Magnitude of Reduction of Intensity of Male Stress-Derived Odor (MSDO), Males [2]: good
- Magnitude of Reduction of Intensity of Male Stress-Derived Odor (MSDO), Females [2]: good

SMILES: CC(C)=CCCC(C)CCO (stereo not shown) [Citronellol 950, 3,7-dimethyl-6-octen-1-ol]
- Magnitude of Reduction of Intensity of Female Stress-Derived Odor (FSDO), Males [1]: good
- Magnitude of Reduction of Intensity of Female Stress-Derived Odor (FSDO), Females [1]: good
- Magnitude of Reduction of Intensity of Male Stress-Derived Odor (MSDO), Males [2]: good
- Magnitude of Reduction of Intensity of Male Stress-Derived Odor (MSDO), Females [2]: good

SMILES: C=CC(C)CCCC(C)(C)O (stereo not shown) [Dihydromyrcenol, 2,6-dimethyl-7-octen-2-ol]
- Magnitude of Reduction of Intensity of Female Stress-Derived Odor (FSDO), Males [1]: best
- Magnitude of Reduction of Intensity of Female Stress-Derived Odor (FSDO), Females [1]: good
- Magnitude of Reduction of Intensity of Male Stress-Derived Odor (MSDO), Males [2]: best
- Magnitude of Reduction of Intensity of Male Stress-Derived Odor (MSDO), Females [2]: good

SMILES: C=CCCC(=O)C1=CCCC(C)(C)C1 [Dynascone 10, 1-(5,5-dimethyl-1-cyclohexen-1-yl)4-penten-1-one]
- Magnitude of Reduction of Intensity of Female Stress-Derived Odor (FSDO), Males [1]: good
- Magnitude of Reduction of Intensity of Female Stress-Derived Odor (FSDO), Females [1]: good
- Magnitude of Reduction of Intensity of Male Stress-Derived Odor (MSDO), Males [2]: best
- Magnitude of Reduction of Intensity of Male Stress-Derived Odor (MSDO), Females [2]: poor

SMILES: C=CCc1ccc(O)c(OC)c1 [Eugenol, 2-methoxy-1-hydroxy-4-allylbenzene]
- Magnitude of Reduction of Intensity of Female Stress-Derived Odor (FSDO), Males [1]: good
- Magnitude of Reduction of Intensity of Female Stress-Derived Odor (FSDO), Females [1]: good
- Magnitude of Reduction of Intensity of Male Stress-Derived Odor (MSDO), Males [2]: best
- Magnitude of Reduction of Intensity of Male Stress-Derived Odor (MSDO), Females [2]: poor

SMILES: CC(C)=CCCC(C)CCCC(C)C=O (stereo not shown) [FARENAL ®, 2,6,10-trimethyl-9-undecenal]
- Magnitude of Reduction of Intensity of Female Stress-Derived Odor (FSDO), Males [1]: good
- Magnitude of Reduction of Intensity of Female Stress-Derived Odor (FSDO), Females [1]: poor
- Magnitude of Reduction of Intensity of Male Stress-Derived Odor (MSDO), Males [2]: poor
- Magnitude of Reduction of Intensity of Male Stress-Derived Odor (MSDO), Females [2]: poor

SMILES: CC1CC(C)(c2ccccc2)OC(C)O1 (stereo not shown) [Floropal, 2,4,6-trimethyl-4-phenyl-1,3-dioxane]
- Magnitude of Reduction of Intensity of Female Stress-Derived Odor (FSDO), Males [1]: best
- Magnitude of Reduction of Intensity of Female Stress-Derived Odor (FSDO), Females [1]: best
- Magnitude of Reduction of Intensity of Male Stress-Derived Odor (MSDO), Males [2]: good
- Magnitude of Reduction of Intensity of Male Stress-Derived Odor (MSDO), Females [2]: poor

SMILES: CCCCCC1C(=O)CCC1CC(=O)OC (stereo not shown) [HEDIONE ®, methyl dihydro jasmonate]
- Magnitude of Reduction of Intensity of Female Stress-Derived Odor (FSDO), Males [1]: poor
- Magnitude of Reduction of Intensity of Female Stress-Derived Odor (FSDO), Females [1]: poor
- Magnitude of Reduction of Intensity of Male Stress-Derived Odor (MSDO), Males [2]: poor
- Magnitude of Reduction of Intensity of Male Stress-Derived Odor (MSDO), Females [2]: poor

SMILES: CCCCCCOC(=O)c1ccccc1O [Hexyl Salicylate, hexyl-2-hydroxybenzoate]
- Magnitude of Reduction of Intensity of Female Stress-Derived Odor (FSDO), Males [1]: poor
- Magnitude of Reduction of Intensity of Female Stress-Derived Odor (FSDO), Females [1]: good
- Magnitude of Reduction of Intensity of Male Stress-Derived Odor (MSDO), Males [2]: poor
- Magnitude of Reduction of Intensity of Male Stress-Derived Odor (MSDO), Females [2]: poor

SMILES: CCCCCCC(C=O)=Cc1ccccc1 [Hexylcinnamic Aldehyde, alpha-hexylcinnamaldehyde]
- Magnitude of Reduction of Intensity of Female Stress-Derived Odor (FSDO), Males [1]: good
- Magnitude of Reduction of Intensity of Female Stress-Derived Odor (FSDO), Females [1]: poor
- Magnitude of Reduction of Intensity of Male Stress-Derived Odor (MSDO), Males [2]: good
- Magnitude of Reduction of Intensity of Male Stress-Derived Odor (MSDO), Females [2]: good

SMILES: CC(=O)C1(C)CC2=C(CCCC2(C)C)CC1C (stereo not shown) [ISO E SUPER ®, octahydro-2,3,8,8-tetramethyl-2-acetonaphthone]
- Magnitude of Reduction of Intensity of Female Stress-Derived Odor (FSDO), Males [1]: poor
- Magnitude of Reduction of Intensity of Female Stress-Derived Odor (FSDO), Females [1]: poor
- Magnitude of Reduction of Intensity of Male Stress-Derived Odor (MSDO), Males [2]: poor
- Magnitude of Reduction of Intensity of Male Stress-Derived Odor (MSDO), Females [2]: poor

SMILES: C=CCOC(=O)COC1CCCCC1 [Isoananat, allyl cyclohexyloxyacetate]
- Magnitude of Reduction of Intensity of Female Stress-Derived Odor (FSDO), Males [1]: good
- Magnitude of Reduction of Intensity of Female Stress-Derived Odor (FSDO), Females [1]: poor
- Magnitude of Reduction of Intensity of Male Stress-Derived Odor (MSDO), Males [2]: best
- Magnitude of Reduction of Intensity of Male Stress-Derived Odor (MSDO), Females [2]: poor

SMILES: CC(=O)O[C@@H]1C[C@H](C)CC[C@H]1C(C)C [Menthyl Acetate rf, 4-menthyl-3-yl acetate]
- Magnitude of Reduction of Intensity of Female Stress-Derived Odor (FSDO), Males [1]: good
- Magnitude of Reduction of Intensity of Female Stress-Derived Odor (FSDO), Females [1]: good
- Magnitude of Reduction of Intensity of Male Stress-Derived Odor (MSDO), Males [2]: best
- Magnitude of Reduction of Intensity of Male Stress-Derived Odor (MSDO), Females [2]: poor

SMILES: CC(=O)OC1CCC(C(C)(C)C)CC1 (stereo not shown) [Oryclone Special, 4-tertbutylcyclohexyl acetate]
- Magnitude of Reduction of Intensity of Female Stress-Derived Odor (FSDO), Males [1]: best
- Magnitude of Reduction of Intensity of Female Stress-Derived Odor (FSDO), Females [1]: poor
- Magnitude of Reduction of Intensity of Male Stress-Derived Odor (MSDO), Males [2]: good
- Magnitude of Reduction of Intensity of Male Stress-Derived Odor (MSDO), Females [2]: poor

SMILES: OCCc1ccccc1 [Phenylethyl Alcohol, phenylethyl alcohol]
- Magnitude of Reduction of Intensity of Female Stress-Derived Odor (FSDO), Males [1]: good
- Magnitude of Reduction of Intensity of Female Stress-Derived Odor (FSDO), Females [1]: poor
- Magnitude of Reduction of Intensity of Male Stress-Derived Odor (MSDO), Males [2]: good
- Magnitude of Reduction of Intensity of Male Stress-Derived Odor (MSDO), Females [2]: good
